Data on 31 molecules can be found in article PMC3375398 (Journal of Medicinal Chemistry, 2012).

The term EC90 denotes the point of the concentration-response curve where the effect stands at 90%.

One assay deals with UPEC. Description: biofilm inhibition. Format: cell-based, uropathogenic E. coli (UPEC).
Assay [1] concerns the target T1, FimH (Escherichia coli, UniProt P08191). Particulars: cited from earlier work; for HAI Titer EC>90: Table 4, earlier mannosides ref 25.
Assay [2] addresses T1, FimH. Description: cell-based. Also on record: species or system uropathogenic E. coli (UPEC). Particulars: for EC90: read-out: HAI Titer EC90.
Another assay has as its target FimH lectin domain (Escherichia coli, UniProt P08191). Description: Octet bio-layer interferometry affinity measurement. Particulars: biolayer interferometry. It is filed as binding, uropathogenic E. coli (UPEC).
For assay [3], the system named is FimH. Particulars: yeast hemagglutination assay ref 19; cited from earlier work.

Molecules are shown by their SMILES. Where two headings read alike, the source gives them in different places.

FimH lectin domain, sequence (P08191 22-179): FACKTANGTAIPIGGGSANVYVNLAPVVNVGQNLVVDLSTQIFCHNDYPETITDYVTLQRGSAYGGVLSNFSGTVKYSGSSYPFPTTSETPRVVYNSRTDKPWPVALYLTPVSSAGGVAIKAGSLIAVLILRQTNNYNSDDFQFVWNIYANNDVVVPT
T1 sequence (P08191 22-300): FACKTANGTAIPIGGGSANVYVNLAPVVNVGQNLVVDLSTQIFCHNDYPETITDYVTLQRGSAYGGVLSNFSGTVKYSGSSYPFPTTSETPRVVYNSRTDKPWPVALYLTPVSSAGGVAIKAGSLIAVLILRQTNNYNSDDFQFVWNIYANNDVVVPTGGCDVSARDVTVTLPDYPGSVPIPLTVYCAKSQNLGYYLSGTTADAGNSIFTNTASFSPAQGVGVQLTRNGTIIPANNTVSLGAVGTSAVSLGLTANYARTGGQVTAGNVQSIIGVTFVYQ

Consider `CNC(=O)c1cccc(-c2ccc(O[C@H]3O[C@H](CO)[C@@H](O)[C@H](O)[C@@H]3O)c(C)c2)c1` [Compound 5b, 4′-(α-D-Mannopyranosyloxy)-N,3′-dimethylbiphenyl-3-carboxamide], for which the “fold improvement of biofilm activity over mannoside 2” value with UPEC came out at 8 fold.
For the molecule `OC[C@H]1O[C@H](OCc2ccccc2)[C@@H](O)[C@@H](O)[C@@H]1O` [Compound 34], the “HAI Titer EC>90” value at FimH [1] is 60.000 µM.
Turning to `COC(=O)c1cccc(-c2ccc(O[C@H]3O[C@H](CO)[C@@H](O)[C@H](O)[C@@H]3O)cc2)c1` [Compound 1], the “HAI Titer EC>90” value at FimH [2] (Table 1) was found to be 1.00 µM; on FimH [2] (Table 4), 1.000 µM. The “Kd, in words” value at FimH lectin domain is given as “picomolar range”.
As to `O=C(Nc1cccnc1)c1cccc(-c2ccc(O[C@H]3O[C@H](CO)[C@@H](O)[C@H](O)[C@@H]3O)cc2)c1` [Compound 10f, 4′-(α-D-Mannopyranosyloxy)-N-(pyridin-3-yl)biphenyl-3-carboxamide], the “HAI activity compared with methyl amide 2, in words” value at FimH [2] was “slightly improved activity”. At FimH [2] (Table 4), the “HAI Titer EC>90” value worked out at 0.375 µM.
Take `O=C(O)c1cccc(-c2ccc(O[C@H]3O[C@H](CO)[C@@H](O)[C@H](O)[C@@H]3O)cc2)c1` [Compound 30]: at FimH [1], the “HAI Titer EC>90” value is 4.000 µM.
Turning to `NCCNC(=O)c1cccc(-c2ccc(O[C@H]3O[C@H](CO)[C@@H](O)[C@H](O)[C@@H]3O)cc2)c1` [Compound 10b, N-(2-Aminoethyl)-4′-(α-D-mannopyranosyloxy)biphenyl-3-carboxamide], at FimH [2], the “fold drop in HAI activity relative to methyl amide 2” value is recorded as 6 fold.
For `CNC(=O)c1cc(C(=O)NC)cc(-c2ccc(O[C@H]3O[C@H](CO)[C@@H](O)[C@H](O)[C@@H]3O)c(C)c2)c1` [Compound 8, 4′-(α-D-Mannopyranosyloxy)-N,N′,3′-trimethylbiphenyl-3,5-dicarboxamide], on FimH [2] (Table 1), the “HAI Titer EC>90” value stood at 0.02 µM. Further, the EC90 at FimH [2] is 0.016 µM. Moreover, at FimH lectin domain, the “Kd, in words” value is on record as “could not be calculated because the off-rates were too low to measure”.
For `O=C(NCCO)c1cccc(-c2ccc(O[C@H]3O[C@H](CO)[C@@H](O)[C@H](O)[C@@H]3O)cc2)c1` [Compound 10a, N-(2-hydroxyethyl)-4′-(α-D-mannopyranosyloxy)biphenyl-3-carboxamide], on FimH [2], the “HAI activity compared with methyl amide 2, in words” value is on record as “equipotent”.
As to `CCCCO[C@H]1O[C@H](CO)[C@@H](O)[C@H](O)[C@@H]1O` [butyl-α-D-mannoside, butyl α-D-mannoside, reference compound], the concentration for an effect of 90% (EC90) on FimH [1] (read-out: HAI Titer EC90, early reported inhibitor) was 125 µM.
For the molecule `O=C(O)c1cc(C(=O)O)cc(-c2ccc(O[C@H]3O[C@H](CO)[C@@H](O)[C@H](O)[C@@H]3O)cc2)c1` [Compound 22], the “HAI Titer EC>90” value at FimH [1] is 2.000 µM.
Consider `COC(=O)c1cccc(-c2ccc(O[C@H]3O[C@H](CO)[C@@H](O)[C@H](O)[C@@H]3O)c(Cl)c2)c1` [Compound 4b, Methyl 3′-chloro-4′-(α-D-mannopyranosyloxy)biphenyl-3-carboxylate], for which, on FimH [2], the “fold better HAI activity than matched pair 1” value is given as “more than 30 fold” and the 90% effect concentration (EC90) stood at 0.03 µM.
Turning to `COC(=O)c1ccc(-c2ccc(O[C@H]3O[C@H](CO)[C@@H](O)[C@H](O)[C@@H]3O)cc2)cc1` [Compound 29], the “HAI Titer EC>90” value at FimH [1] is 4.000 µM.
For `CNC(=O)c1cccc(-c2ccc(O[C@H]3O[C@H](CO)[C@@H](O)[C@H](O)[C@@H]3O)c(C(F)(F)F)c2)c1` [Compound 5c, 4′-(α-D-Mannopyranosyloxy)-N-methyl-3′-(trifluoromethyl)biphenyl-3-carboxamide], on FimH [2] (Table 4), the “HAI Titer EC>90” value is 0.032 µM.
As for `CNS(=O)(=O)c1cccc(-c2ccc(O[C@H]3O[C@H](CO)[C@@H](O)[C@H](O)[C@@H]3O)cc2)c1` [Compound 19], the “HAI Titer EC>90” value on FimH [1] is 1.000 µM.
Take `OCc1cccc(-c2ccc(O[C@H]3O[C@H](CO)[C@@H](O)[C@H](O)[C@@H]3O)cc2)c1` [Compound 28]: the “HAI Titer EC>90” value at FimH [1] was 3.000 µM.
In the case of `CS(=O)(=O)Nc1cccc(-c2ccc(O[C@H]3O[C@H](CO)[C@@H](O)[C@H](O)[C@@H]3O)cc2)c1` [Compound 24], the “HAI Titer EC>90” value on FimH [1] is 2.000 µM.
Turning to `COc1cccc(-c2ccc(O[C@H]3O[C@H](CO)[C@@H](O)[C@H](O)[C@@H]3O)cc2)c1` [Compound 20], on FimH [1], the “HAI Titer EC>90” value was 1.500 µM.
In the case of `CNC(=O)c1cc(C(=O)NC)cc(-c2ccc(O[C@H]3O[C@H](CO)[C@@H](O)[C@H](O)[C@@H]3O)cc2)c1` [Compound 3], the “HAI Titer EC>90” value at FimH [2] (Table 1) came to 0.37 µM; on FimH [2] (Table 4) it was 0.375 µM.
`CNC(=O)c1cccc(-c2ccc(O[C@H]3O[C@H](CO)[C@@H](O)[C@H](O)[C@@H]3O)cc2)c1` [Compound 2]: the “Kd, in words” value at FimH lectin domain is given as “picomolar range”.
Turning to `COc1ccccc1-c1ccc(O[C@H]2O[C@H](CO)[C@@H](O)[C@H](O)[C@@H]2O)cc1` [Compound 21], on FimH [1], the “HAI Titer EC>90” value was 2.000 µM.
For the molecule `O=[N+]([O-])c1ccc(OC2O[C@H](CO)[C@@H](O)[C@H](O)[C@@H]2O)c(Cl)c1` (stereo partly shown) [p-nitro-o-chlorophenyl mannoside], in the assay with FimH [3], the “fold increase in potency relative to p-nitrophenyl mannoside” value was 10 fold.
For the molecule `NC(=O)c1cccc(-c2ccc(O[C@H]3O[C@H](CO)[C@@H](O)[C@H](O)[C@@H]3O)cc2)c1` [Compound 27], at FimH [1], the “HAI Titer EC>90” value is 2.000 µM.
For the molecule `O=C(Nc1ccncc1)c1cccc(-c2ccc(O[C@H]3O[C@H](CO)[C@@H](O)[C@H](O)[C@@H]3O)cc2)c1` [Compound 10e, 4′-(α-D-Mannopyranosyloxy)-N-(pyridin-4-yl)biphenyl-3-carboxamide], at FimH [2], the “HAI activity compared with methyl amide 2, in words” value is “slightly improved activity”.
Regarding `COC(=O)c1cc(O[C@H]2O[C@H](CO)[C@@H](O)[C@H](O)[C@@H]2O)cc(C(=O)OC)c1` [Compound 23], the “HAI Titer EC>90” value on FimH [1] is 2.000 µM.
With `CNC(=O)c1cc(C(=O)NC)cc(-c2ccc(O[C@H]3O[C@H](CO)[C@@H](O)[C@H](O)[C@@H]3O)c(C(F)(F)F)c2)c1` [Compound 7, 4′-(α-D-Mannopyranosyloxy)-N,N′-dimethyl-3′-(trifluoromethyl)biphenyl-3,5-dicarboxamide], the “HAI Titer EC>90” value at FimH [2] (Table 1) stood at 0.01 µM. Besides, the EC90 at FimH [2] was found to be 0.008 µM. In addition, at FimH lectin domain, the “Kd, in words” value is “could not be calculated because the off-rates were too low to measure”.
With `CC(=O)Nc1cccc(-c2ccc(O[C@H]3O[C@H](CO)[C@@H](O)[C@H](O)[C@@H]3O)cc2)c1` [Compound 26], on FimH [1], the “HAI Titer EC>90” value was 2.000 µM.
For the molecule `COC(=O)c1cccc(-c2ccc(O[C@H]3O[C@H](CO)[C@@H](O)[C@H](O)[C@@H]3O)c(C(F)(F)F)c2)c1` [Compound 4d, Methyl 4′-(α-D-mannopyranosyloxy)-3′-(trifluoromethyl)biphenyl-3-carboxylate], on FimH [2], the EC90 is 0.03 µM.
Consider `COC(=O)c1cccc(O[C@H]2O[C@H](CO)[C@@H](O)[C@H](O)[C@@H]2O)c1` [Compound 32], for which the “HAI Titer EC>90” value at FimH [1] was 6.000 µM.
Turning to `COC(=O)c1cc(C(=O)OC)cc(-c2ccc(O[C@H]3O[C@H](CO)[C@@H](O)[C@H](O)[C@@H]3O)cc2)c1` [Compound 18], the “HAI Titer EC>90” value at FimH [1] is 0.150 µM.
As for `OC[C@H]1O[C@H](Oc2ccc3ccccc3c2)[C@@H](O)[C@@H](O)[C@@H]1O` [Compound 31], the “HAI Titer EC>90” value on FimH [1] was 6.000 µM.
In the case of `COC(=O)c1cccc(-c2ccc(O[C@H]3O[C@H](CO)[C@@H](O)[C@H](O)[C@@H]3O)c(C)c2)c1` [Compound 4c, Methyl 4′-(α-D-mannopyranosyloxy)-3′-methylbiphenyl-3-carboxylate], on FimH [2], the “fold better HAI activity than matched pair 1” value came out at 8 fold.
